Experimental data reported in PubChem BioAssay (NCI).
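Method: 48-hour compound exposure of cells in 96-well plates, five concentrations, linear interpolation of endpoints. At the TGI there is no net growth.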

Experiments:
Experiment in all cases: growth of human tumour cells (NCI), 48 h
MALME-3M melanoma = tested on: MALME-3M melanoma
HL-60(TB) leukemia = tested on: HL-60(TB) leukemia
NCI-H460 lung = tested on: NCI-H460 lung
UACC-257 melanoma = tested on: UACC-257 melanoma
HCT-116 colon = tested on: HCT-116 colon
SK-MEL-2 melanoma = tested on: SK-MEL-2 melanoma
RXF-631 renal = tested on: RXF-631 renal
786-0 renal = tested on: 786-0 renal
HOP-62 NSCLC = tested on: HOP-62 NSCLC
KM20L2 colon = tested on: KM20L2 colon
HOP-18 NSCLC = tested on: HOP-18 NSCLC
DMS 273 small cell lung = tested on: DMS 273 small cell lung
SK-MEL-28 melanoma = tested on: SK-MEL-28 melanoma
HT29 colon = tested on: HT29 colon
RXF 393 renal = tested on: RXF 393 renal
OVCAR-4 ovarian = tested on: OVCAR-4 ovarian
M19-MEL melanoma = tested on: M19-MEL melanoma
NCI-H23 lung = tested on: NCI-H23 lung
K-562 leukemia = tested on: K-562 leukemia
CAKI-1 renal = tested on: CAKI-1 renal
HOP-92 NSCLC = tested on: HOP-92 NSCLC
TK-10 renal = tested on: TK-10 renal
A549 NSCLC = tested on: A549 NSCLC
SR leukemia = tested on: SR leukemia
OVCAR-8 ovarian = tested on: OVCAR-8 ovarian
LXFL 529 NSCLC = tested on: LXFL 529 NSCLC
U251 CNS = tested on: U251 CNS
LOX IMVI melanoma = tested on: LOX IMVI melanoma
EKVX NSCLC = tested on: EKVX NSCLC
SK-OV-3 ovarian = tested on: SK-OV-3 ovarian
XF 498 CNS = tested on: XF 498 CNS
CCRF-CEM leukemia = tested on: CCRF-CEM leukemia
SF-539 CNS = tested on: SF-539 CNS
NCI-H522 lung = tested on: NCI-H522 lung
SN12C renal = tested on: SN12C renal
HCC-2998 colon = tested on: HCC-2998 colon
SF-295 CNS = tested on: SF-295 CNS
COLO 205 colon = tested on: COLO 205 colon
SW-620 colon = tested on: SW-620 colon
SNB-19 CNS = tested on: SNB-19 CNS
SF-268 CNS = tested on: SF-268 CNS
OVCAR-5 ovarian = tested on: OVCAR-5 ovarian
NCI-H226 lung = tested on: NCI-H226 lung
MOLT-4 leukemia = tested on: MOLT-4 leukemia
IGROV1 ovarian = tested on: IGROV1 ovarian
ACHN renal = tested on: ACHN renal
A498 renal = tested on: A498 renal
KM12 colon = tested on: KM12 colon
DLD-1 colon = tested on: DLD-1 colon
HCT-15 colon = tested on: HCT-15 colon
SK-MEL-5 melanoma = tested on: SK-MEL-5 melanoma
DMS 114 small cell lung = tested on: DMS 114 small cell lung
SNB-75 CNS = tested on: SNB-75 CNS
UO-31 renal = tested on: UO-31 renal
OVCAR-3 ovarian = tested on: OVCAR-3 ovarian
RPMI-8226 leukemia = tested on: RPMI-8226 leukemia
SNB-78 CNS = tested on: SNB-78 CNS
M14 melanoma = tested on: M14 melanoma
UACC-62 melanoma = tested on: UACC-62 melanoma

Measured: TGI

O=C1OC(=O)C2C3C=CC(C12)C1C2C=CC2C31 (configuration not stated)
> 100 µM: MALME-3M melanoma | HL-60(TB) leukemia | NCI-H460 lung | UACC-257 melanoma | HCT-116 colon | SK-MEL-2 melanoma | RXF-631 renal | 786-0 renal | HOP-62 NSCLC | KM20L2 colon | HOP-18 NSCLC | DMS 273 small cell lung | SK-MEL-28 melanoma | HT29 colon | RXF 393 renal | OVCAR-4 ovarian | M19-MEL melanoma | NCI-H23 lung | K-562 leukemia | CAKI-1 renal | HOP-92 NSCLC | TK-10 renal | A549 NSCLC | SR leukemia | OVCAR-8 ovarian | LXFL 529 NSCLC | U251 CNS | LOX IMVI melanoma | EKVX NSCLC | SK-OV-3 ovarian | XF 498 CNS | CCRF-CEM leukemia | SF-539 CNS | NCI-H522 lung | SN12C renal | HCC-2998 colon | SF-295 CNS | COLO 205 colon | SW-620 colon | SNB-19 CNS | SF-268 CNS | OVCAR-5 ovarian | NCI-H226 lung | MOLT-4 leukemia | IGROV1 ovarian | ACHN renal | A498 renal | KM12 colon

O=C1CCCCC12CCC/C2=N\O (configuration not stated)
> 100 µM: MALME-3M melanoma | HL-60(TB) leukemia | NCI-H460 lung | UACC-257 melanoma | HCT-116 colon | DLD-1 colon | HCT-15 colon | SK-MEL-2 melanoma | RXF-631 renal | 786-0 renal | HOP-62 NSCLC | KM20L2 colon | SK-MEL-5 melanoma | HOP-18 NSCLC | DMS 273 small cell lung | SK-MEL-28 melanoma | RXF 393 renal | OVCAR-4 ovarian | M19-MEL melanoma | DMS 114 small cell lung | K-562 leukemia | SNB-75 CNS | CAKI-1 renal | UO-31 renal | TK-10 renal | A549 NSCLC | SR leukemia | OVCAR-8 ovarian | LXFL 529 NSCLC | U251 CNS | OVCAR-3 ovarian | EKVX NSCLC | SK-OV-3 ovarian | RPMI-8226 leukemia | CCRF-CEM leukemia | SF-539 CNS | NCI-H522 lung | SN12C renal | HCC-2998 colon | COLO 205 colon | SNB-78 CNS | SW-620 colon | SNB-19 CNS | SF-268 CNS | NCI-H226 lung | MOLT-4 leukemia | IGROV1 ovarian | M14 melanoma | ACHN renal | A498 renal | UACC-62 melanoma | KM12 colon

CC(C)N(C(=O)C12C3C4C1C1C2C3C41C(N)=O)C(C)C (configuration not stated)
> 100 µM: MALME-3M melanoma | HCT-15 colon | RXF-631 renal | 786-0 renal | HOP-62 NSCLC | KM20L2 colon | SK-MEL-5 melanoma | DMS 273 small cell lung | M19-MEL melanoma | DMS 114 small cell lung | K-562 leukemia | CAKI-1 renal | UO-31 renal | HOP-92 NSCLC | A549 NSCLC | SR leukemia | OVCAR-8 ovarian | LXFL 529 NSCLC | U251 CNS | OVCAR-3 ovarian | EKVX NSCLC | SK-OV-3 ovarian | CCRF-CEM leukemia | SF-539 CNS | NCI-H522 lung | SN12C renal | HCC-2998 colon | SF-295 CNS | COLO 205 colon | SNB-78 CNS | SW-620 colon | SNB-19 CNS | SF-268 CNS | MOLT-4 leukemia | IGROV1 ovarian | M14 melanoma | ACHN renal | A498 renal

c1ccc(OCc2nnc3n2N=C(c2ccccc2)CS3)cc1
95.1 µM: SNB-75 CNS
> 100 µM: MALME-3M melanoma | HL-60(TB) leukemia | NCI-H460 lung | UACC-257 melanoma | HCT-116 colon | DLD-1 colon | HCT-15 colon | SK-MEL-2 melanoma | 786-0 renal | HOP-62 NSCLC | SK-MEL-5 melanoma | DMS 273 small cell lung | SK-MEL-28 melanoma | HT29 colon | RXF 393 renal | OVCAR-4 ovarian | M19-MEL melanoma | DMS 114 small cell lung | NCI-H23 lung | K-562 leukemia | CAKI-1 renal | UO-31 renal | HOP-92 NSCLC | TK-10 renal | A549 NSCLC | SR leukemia | OVCAR-8 ovarian | LXFL 529 NSCLC | U251 CNS | LOX IMVI melanoma | OVCAR-3 ovarian | SK-OV-3 ovarian | RPMI-8226 leukemia | XF 498 CNS | CCRF-CEM leukemia | SF-539 CNS | NCI-H522 lung | SN12C renal | HCC-2998 colon | SF-295 CNS | SNB-78 CNS | SW-620 colon | SNB-19 CNS | SF-268 CNS | OVCAR-5 ovarian | NCI-H226 lung | MOLT-4 leukemia | IGROV1 ovarian | M14 melanoma | ACHN renal | A498 renal | UACC-62 melanoma | KM12 colon
